Measurements as given in the NIST ThermoML archive (doi:10.1016/j.jct.2012.05.030).

Key:
[1] = refractive index (other wavelength) (dimensionless); details: 100 kPa, Liquid, Wavelength=632.8 nm, Standard Abbe refractometry
[2] = refractive index (other wavelength) (dimensionless); xn = mol fraction of the nth substance listed; details: 100 kPa, Liquid, Wavelength=632.8 nm, Standard Abbe refractometry

CCCCCCCCCCCCCCCCC [heptadecane]
[1]
Details | refractive index
298.76 K | 1.4331
299.97 K | 1.4326
301.18 K | 1.4321
302.15 K | 1.4317
303.27 K | 1.4313
304.24 K | 1.4309
305.29 K | 1.4304
306.32 K | 1.43
307.42 K | 1.4296
307.55 K | 1.4296

CCCCCCCCCCCCCCCCC [heptadecane] + N#Cc1ccccc1
[2]
Details | refractive index
298.76 K, x2 = 0 | 1.4331
299.97 K, x2 = 0 | 1.4326
301.18 K, x2 = 0 | 1.4321
302.15 K, x2 = 0 | 1.4317
303.27 K, x2 = 0 | 1.4313
304.24 K, x2 = 0 | 1.4309
305.29 K, x2 = 0 | 1.4304
306.32 K, x2 = 0 | 1.43
307.42 K, x2 = 0 | 1.4296
307.55 K, x2 = 0 | 1.4296
307.55 K, x2 = 0.1039 | 1.4325
307.55 K, x2 = 0.2138 | 1.4362
307.55 K, x2 = 0.3266 | 1.4411
307.55 K, x2 = 0.4187 | 1.4458
307.55 K, x2 = 0.5127 | 1.4515
307.55 K, x2 = 0.5975 | 1.4578
307.55 K, x2 = 0.7127 | 1.4688
307.55 K, x2 = 0.8046 | 1.4802
307.55 K, x2 = 0.9266 | 1.501

CCCCCCCCCCCCCCC [pentadecane]
[1]
Details | refractive index
293.37 K | 1.4305
294.36 K | 1.4301
295.64 K | 1.4296
296.92 K | 1.429
297.91 K | 1.4286
299.12 K | 1.4281
300.26 K | 1.4276
301.51 K | 1.4271
302.46 K | 1.4267
302.65 K | 1.4266

CCCCCCCCCCCCCCC [pentadecane] + N#Cc1ccccc1
[2]
Details | refractive index
293.37 K, x2 = 0 | 1.4305
294.36 K, x2 = 0 | 1.4301
295.64 K, x2 = 0 | 1.4296
296.92 K, x2 = 0 | 1.429
297.91 K, x2 = 0 | 1.4286
299.12 K, x2 = 0 | 1.4281
300.26 K, x2 = 0 | 1.4276
301.51 K, x2 = 0 | 1.4271
302.46 K, x2 = 0 | 1.4267
302.65 K, x2 = 0 | 1.4266
302.65 K, x2 = 0.1097 | 1.4304
302.65 K, x2 = 0.22 | 1.435
302.65 K, x2 = 0.3283 | 1.4404
302.65 K, x2 = 0.4141 | 1.4454
302.65 K, x2 = 0.4959 | 1.451
302.65 K, x2 = 0.5849 | 1.4582
302.65 K, x2 = 0.7005 | 1.4698
302.65 K, x2 = 0.8052 | 1.4832
302.65 K, x2 = 0.8983 | 1.4986
